Results taken from patent US20260335323A1, “CHIMERIC MOLECULE” (UCL Business Ltd, priority 2023, published 2026).

What was measured:
[1] = target: T1, ULK1 (Homo sapiens, UniProt O75385); assay: in vitro kinase assay measuring ATP consumption; type: biochemical; details: versus BL-918
T1 sequence (O75385 1-1050): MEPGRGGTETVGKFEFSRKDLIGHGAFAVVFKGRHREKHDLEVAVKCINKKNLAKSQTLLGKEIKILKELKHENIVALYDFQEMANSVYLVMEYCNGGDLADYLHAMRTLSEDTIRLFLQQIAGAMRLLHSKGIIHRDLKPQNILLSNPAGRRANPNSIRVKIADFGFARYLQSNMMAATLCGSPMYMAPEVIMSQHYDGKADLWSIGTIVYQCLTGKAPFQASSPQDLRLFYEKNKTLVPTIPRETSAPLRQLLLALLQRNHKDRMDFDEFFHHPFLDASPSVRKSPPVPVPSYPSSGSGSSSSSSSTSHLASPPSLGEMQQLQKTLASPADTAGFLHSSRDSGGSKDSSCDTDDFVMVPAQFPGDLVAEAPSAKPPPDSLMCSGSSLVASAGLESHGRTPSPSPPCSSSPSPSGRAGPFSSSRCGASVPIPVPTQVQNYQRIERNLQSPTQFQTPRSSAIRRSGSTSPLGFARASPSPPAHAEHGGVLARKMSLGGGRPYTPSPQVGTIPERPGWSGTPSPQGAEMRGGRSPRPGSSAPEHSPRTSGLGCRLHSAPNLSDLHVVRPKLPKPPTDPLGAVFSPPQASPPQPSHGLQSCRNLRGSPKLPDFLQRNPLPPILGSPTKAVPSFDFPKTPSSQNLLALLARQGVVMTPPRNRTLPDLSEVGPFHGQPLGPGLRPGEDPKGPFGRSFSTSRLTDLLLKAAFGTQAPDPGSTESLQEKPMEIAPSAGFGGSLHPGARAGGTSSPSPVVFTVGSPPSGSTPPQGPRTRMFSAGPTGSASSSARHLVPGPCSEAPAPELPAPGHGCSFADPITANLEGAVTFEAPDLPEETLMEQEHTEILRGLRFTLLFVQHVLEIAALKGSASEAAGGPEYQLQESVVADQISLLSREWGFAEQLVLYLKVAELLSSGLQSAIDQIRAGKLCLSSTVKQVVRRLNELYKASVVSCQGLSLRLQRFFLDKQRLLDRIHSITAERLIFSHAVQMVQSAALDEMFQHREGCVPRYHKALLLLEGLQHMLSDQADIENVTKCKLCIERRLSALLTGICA
Excerpt: Next, we designed a chimeric compound composed of a BL-918 derivative (referred to as NZ-60 herein) as our autophagy activator linked to the TSPO ligand as our targeting warhead to the outer mitochondrial membrane, utilising Huisgen-Sharpless click chemistry for the key linkage step^38-41. We designed a chemical synthesis route in 9 steps to produce two ULKTACs, NZ-65 and NZ-66. NZ-65 employs a polyethylene glycol (PEG) linker while NZ-66 uses a six carbon hexane linker (FIG. 3A). The resulting molecules were >99% pure as verified by LCMS. […] Importantly, key interactions shown to be necessary for the activation of ULK1 in its kinase domain, namely, Arg18, Lys50, Asn86 and Tyr89^8, appear to be maintained.

[2] = tested on: LC3; assay: ATP5a/LC3 co-localisation immunofluorescence in MEF ULK1/2-/-; type: cell-based, mouse; details: ULK1/2-/- cells
Protocol: FIG. 6. ULKTACs rely on ULK1 for the redirection of autophagy components to mitochondria and subsequent mitophagic degradation (A) Western blot of mouse embryonic fibroblasts (MEF) WT and MEF ULK1/2^−/− treated with 1 mM ULKTACs, 5 mM CCCP or both and probed for ULK1, Mfn2 and Actin—quantification of the relative intensity of Mfn2 shown in (B), normalised to Actin. Representative immunofluorescence of MEF WT (C) and MEF ULK1/2^−/− (D) treated with 5 mM CCCP, 1 mM ULKTACs or both and immunostained for Alexa 488 ATP5a and Alexa 647 LC3B. Quantification of the colocalised LC3 to ATP5a spot area shown in WT vs ULK1/2^−/− treated MEF cells shown in (E). Data shown are mean±SEM, n=3, *p<0.05, ** p<0.01, *** p<0.001, Two-way ANOVA with Tukey's multiple comparisons test.
For TOM20/ULK1 immunofluorescence, cells were seeded in a 384 well PerkinElmer CellCarrier Ultra plate 24 hours prior to treatment with compounds. Cells were treated for 18 hours after which they were fixed with 4% paraformaldehyde (PFA) in phosphate buffered saline (PBS) and blocked with 10% FBS and 0.1% Triton in PBS. Plates were incubated at 4° C. overnight, with 1:400 mouse anti-TOM20 (Santa Cruz, #sc-17764) and 1:400 rabbit anti-ULK1 (Cell Signalling Technologies, #0854). […]

SMILES | activation of ULK1 vs BL-918 [1] | co-localisation of ATP5a with LC3 [2]
O=C(Nc1cc(C(F)(F)F)cc(C(F)(F)F)c1)N[C@@H](C(=O)Nc1ccc(F)cc1F)c1ccc(OCc2cn(CCOCCOCCNC(=O)C(=O)c3c(-c4ccccc4)[nH]c4ccccc34)nn2)cc1 [NZ-65, (R)-2-(3-(3,5-bis(trifluoromethyl)phenyl)ureido)-N-(2,4-difluorophenyl)-2-(4-((1-(2-(2-(2-(2-oxo-2-(2-phenyl-1H-indol-3-yl)acetamido)ethoxy)ethoxy)ethyl)-1H-1,2,3-triazol-4-yl)methoxy)phenyl) acetamide] | comparable activity | absent
O=C(Nc1cc(C(F)(F)F)cc(C(F)(F)F)c1)N[C@@H](C(=O)Nc1ccc(F)cc1F)c1ccc(OCc2cn(CCCCCCNC(=O)C(=O)c3c(-c4ccccc4)[nH]c4ccccc34)nn2)cc1 [NZ-66, (R)-2-(3-(3,5-bis(trifluoromethyl)phenyl)ureido)-N-(2,4-difluorophenyl)-2-(4-((1-(6-(2-oxo-2-(2-phenyl-1H-indol-3-yl)acetamido)hexyl)-1H-1,2,3-triazol-4-yl)methoxy)phenyl) acetamide] | comparable activity | absent
